Entries after “also recorded” stand apart in the source; their conditions may differ.

Experimental findings from patent publication US20210145801A1, “THERAPY FOR PROTEIN MISFOLDING DISEASE” (WREN THERAPEUTICS LIMITED, priority 2018, published 2021) are described below.

One data set relates to control animals (N2). As to the kind of experiment: Maximum tolerable dose in control animals. Also on record: species or system C. elegans. Conditions: in vivo. As for the experimental part: (§1) Briefly, Netoglitazone stocks (5 mM in 100% DMSO) were used at an appropriate concentration to seed 9-cm NGM plates. Plates were then placed in a laminar flow hood at room temperature (22° C.) for up to 4 hours to dry. C. elegans cultures were then transferred onto media seeded with compound as L4 stage or Day 3 for late treatments and incubated at 24° for the whole experiment. Experiments were carried out at different Netoglitazone concentrations ranging from 0.05 to 500 μM in 1% DMSO. As controls, plates seeded only with 1% DMSO were used.

The test system of data set [1] is AD worms (GMC101). The experiment in a line: Automated motility assay (WF-NTP) in AD worms. The data set is classed as in vivo, C. elegans. As for the experimental part: Standard conditions were used for the propagation of C. elegans (S. Brenner, The genetics of Caenorhabditis elegans. Genetics. 77, 71-94 (1974)). Briefly, the animals were synchronized by hypochlorite bleaching, hatched overnight in M9 buffer (3 g/l KH2PO4, 6 g/l Na2HPO4, 5 g/l NaCl, […]), and subsequently cultured at 20° C. on nematode growth medium (NGM) (CaCl2) 1 mM, MgSO4 1 mM, cholesterol 5 μg/mL, PBS Buffer (250 μM KH2PO4, 67.5 μM KCl, 3.425 mM of NaCl, pH 6), Agar 17 g/L, NaCl 3 g/1, casein 7.5 g/l) plates seeded with the E. coli strain OP50. Saturated cultures of OP50 were grown by inoculating 50 ml of LB medium (tryptone 10 g/l, NaCl 10 g/1, yeast extract 5 g/l) with OP50 and incubating the culture for 16 h at 37° C. NGM plates were seeded with bacteria by adding 350 μl of saturated OP50 to each plate and leaving the plates at 20° C. for 2-3 days. On day 3 after synchronisation, the animals were placed on NGM plates containing 5-fluoro-2′deoxy-uridine (FUDR) (75 μM, unless stated otherwise) to inhibit the growth of offspring.
GMC101 dvIs100 [unc-54p::A-beta-1-42::unc-54 3′UTR+mtl-2p::GFP]. mtl-2p::GFP produces constitutive expression of GFP in intestinal cells. unc-54p::A-beta-1-42 expresses full-length human Aβ42 peptide in body wall muscle cells that aggregates in vivo. […]
All C. elegans populations were cultured at 20° C. and developmentally synchronized from a 4 h egg-lay. At 64-72 h post-egg-lay (time zero), individuals were transferred to FUDR plates, and body movements were assessed over the times indicated. At different ages, the animals were washed off the plates with M9 buffer and spread over an OP-50 unseeded 9 cm plate, after which their movements were recorded at 20 fps using a recently developed microscopic procedure (M. Perni et al., Massively parallel C. elegans tracking provides multi-dimensional fingerprints for phenotypic discovery. J. Neurosci. Methods. 306, 57-67 (2018)) for 1 min. Up to 600 animals were counted in each experiment in duplicate unless stated otherwise. One experiment that is representative of the three or more measured in each series of experiments is shown, and videos were analysed using a custom-made tracking code (M. Perni et al., Massively parallel C. elegans tracking provides multi-dimensional fingerprints for phenotypic discovery. J. Neurosci. Methods. 306, 57-67 (2018)).
In order to screen for the effect of therapeutics in the most robust way, a wide field-of-view nematode-tracking platform (WF-NTP) was used, which enables the simultaneous investigation of multiple phenotypic readouts on large worm populations. The WF-NTP monitors up 5000 animals in parallel, and the phenotypical readout includes multiple parallel parameters.

In the next data set the target is T1, Aβ42 fibrils (Homo sapiens, UniProt P05067).
T1 construct: made in house; host or cells: E. coli BL21 Gold (DE3)
As to the kind of experiment: Dot blot assay with fibril-specific OC antibody. The format is biochemical. The note with it: 2 μM Aβ42; 5-fold excess of compound; eight time points. Here is the method: Blotting was performed using Aβ42 fibril-specific antibody (OC, Millipore). During the time course of the aggregation of a 2 μM Aβ42 in the absence and in the presence of 5-fold excess of Netoglitazone, 4 μL Aβ42 aliquots were removed from the mixture at different time points for blotting with OC. Aβ42 aliquots were spotted onto a nitrocellulose membrane (0.2 μm, Whatman) and then the membranes were dried and then blocked with Blocking One (Nacalai tesque) before immuno-detection. OC was used according to the manufacturer's instructions. Alexa Fluor® 488-conjugated secondary antibodies (Life technologies) were subsequently added and fluorescence detection was performed using Typhoon Trio Imager (GE Healthcare).

For data set [2], the system named is AD worms (GMC101). The note with it: GMC101, C. elegans, in vivo. As for the experimental part: as §1
The target in another data set is T2, Aβ42 (Homo sapiens, UniProt P05067).
T2 construct: made in house; host or cells: E. coli BL21 Gold (DE3)
The experiment in a line: Aβ42 aggregation kinetics in human CSF. The data set is classed as biochemical. Conditions: 66% CSF; 1.25 and 5-fold excess. As for the experimental part: For the experiments of Aβ42 aggregation kinetics in human CSF, monomeric solutions of 3 μM Aβ42 were prepared similar to above with the only exception that the buffer was 20 mM Hepes, pH 8 supplemented with 1 mM CaCl2 at 150 mM NaCl. The obtained monomer was diluted with the […] in order to reach 66% final concentration of CSF, in which the effect of CSF is close to maximum. Aβ42 aggregation kinetics were performed in the absence and the presence of 1.25 and 5-fold excess of Netoglitazone.

[3] abbreviates: administered at D3, read at D5 of adulthood.

T2 sequence (P05067 671-713): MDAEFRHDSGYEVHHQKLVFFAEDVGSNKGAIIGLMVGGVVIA
T1 sequence (P05067 671-713): as above

Regarding `O=C1NC(=O)C(Cc2ccc3cc(OCc4ccccc4F)ccc3c2)S1` (centres unmarked) [Netoglitazone], the “Maximum tolerable dose in control animals” value in the data set on control animals (N2) was less than 500 µM. Also, in the data set with AD worms (GMC101) [1] (setting [3]), the “Motility of AD worms after late administration” value was “increase of the worm's mobility; also recorded: improves motility”; the “Survival rate of AD worms after late administration” value was “increase of the worm's mobility and survival rate; also recorded: improves motility (i) and survival rates”. Besides, in the data set with AD worms (GMC101) [1] (administered at L4, 0.05-10 μM), the “Recovery of dysfunctional phenotype / mobility of AD worms” value was “dose dependent and statistically significant recovery in the dysfunctional phenotype”. Also, in the data set on AD worms (GMC101) [1] (administered at L4, D3 of adulthood), the “Concentration range of best/maximum protective effect on mobility” value lay within 0.5 to 5 µM. In addition, the “Delay of Aβ42 fibril formation in dot-blot assay” value at Aβ42 fibrils is reported as “identical within experimental error to that observed in the ThT-based assay”. For the same compound, in the data set with AD worms (GMC101) [2], the “Maximum tolerable dose in AD worms” value is “less than 50 μM”. Besides, the “Delay of Aβ42 aggregation kinetics in 66% human CSF” value at Aβ42 is “significantly delayed the aggregation kinetics in a concentration-dependent manner”.
